Laboratory results: US20090306150A1, “CARBOXYLIC ACID SALTS OF 2-AMINO-3-CARBETHOXYAMINO-6-(4-FLUORO-BENZYLAMINO)-PYRIDINE” (AWD. PHARMA GMBH & CO. KG, priority 2008, published 2009)

Experiments:
Assay type in all cases: physicochemical
[1] = Dissolution profiles of flupirtine acid addition salts in ethanol (compacted substance); conditions: after 10 min stirring in ethanol
[2] = Determining the bulk density of flupirtine salts; conditions: volume per 100.0 g of sample material, about 4 g in 10 ml measuring cylinder, not compacted
Procedure: The bulk density was determined as follows: Without increasing its density, sample material (about 4 grams) was introduced into a 10 ml measuring cylinder (±0.2 ml). The volume and the exact weight of the introduced sample material were determined. The bulk density was calculated as volume per 100.0 g of sample material.

[3] = Stability towards oxidation and discoloration when exposed to air; conditions: storage period of 30 days at room temperature, in contrast to maleate and gluconate
Excerpt: Discoloration can take takes place after prolonged storage or when exposed to air. Discoloration is regarded as leading to an active pharmaceutical ingredient (API) of low pharmaceutical quality and can be avoided by using a protective atmosphere in the production process and using expensive packaging materials for the finished drug forms. The discoloration effect is known for flupirtine hydrochloride, flupiritine gluconate and both polymorphs of flupirtine maleate.

[4] = Dissolution profiles of flupirtine acid addition salts in ethanol (compacted substance); conditions: 100 mg compacted, 1000 ml ethanol, 37° C., basket 50 UpM
Procedure: The dissolution in Ethanol was measured using compacted substance.
100 mg substance was compacted using a hydraulic press. Diameter of cake: 8.9 mm; pressure 20 kp/cm^2 for 15 sec. Liberation parameter:
Basket, 50 UpM, 1000 ml medium 37° C. Apparatus: DT6R Dissolution Tester (ERWEKA).
At given time points 5.0 ml solution were taken and measured vs. reference at 244 nm at a spectral photometer. The solution was refilled with 5 ml solvent. The amount of liberated substance at given time points was calculated using a response factor (absorption/mg substance). Measuring error: 10%.

[5] = Crystal shape of flupirtine salts (light microscope photomicrographs)
Excerpt: As referred to herein, the “aspect ratio” denotes the ratio of the second largest dimension of a crystal particle (i.e. its width) to the largest dimension of the crystal particle (i.e. its length). The aspect ratio may be determined from a representative number of crystals by visual observation under a light microscope. The photomicrographs were obtained by gently exerting pressure on the sample material with a mortar and pistil, transferring the sample material to a microscope slide and covering it with immersion oil, followed by observation and image recording on an Optech Biostar microscope equipped with a polarisation filter. The magnification was 200, i.e. at a width of the photomicrograph of 14 cm, 1 cm of said photograph corresponds to about 0.06 mm.

[6] = Storage stability of flupirtine salts (HPLC); conditions: for Decrease of the area under the peak of the flupirtine signal: 0 to 14 days of storage at room temperature under normal air; for Flupirtine signal after 14 days (area under the peak in %): HPLC after 14 days of storage at room temperature under normal air, about 21% oxygen; for Flupirtine signal after 0 days (area under the peak in %): HPLC after preparation of the salts
Procedure: [table] HPLC was performed after preparation of the salts and repeated after 14 days of storage at room temperature under normal air containing about 21% oxygen.

SMILES	Dissolution in ethanol (in words) [1]	Bulk density (ml/100 g substance) [2]	Stability towards oxidation and towards discoloration [3]	Amount of substance dissolved ([4]; 5 min)	Amount of substance dissolved ([4]; 10 min)	Amount of substance dissolved ([4]; 15 min)	Amount of substance dissolved ([4]; 20 min)	Amount of substance dissolved ([4]; 25 min)	Amount of substance dissolved ([4]; 30 min)	Amount of substance dissolved ([4]; 60.25 min)	Crystal shape [5]	Decrease of the area under the peak of the flupirtine signal [6]	Flupirtine signal after 14 days (area under the peak in %) [6]	Flupirtine signal after 0 days (area under the peak in %) [6]
CCOC(=O)Nc1ccc(NCc2ccc(F)cc2)nc1N [Flupirtine propionate, 2-amino-3-carbethoxyamino-6-(4-fluoro-benzylamino)-pyridine propionate]	completely dissolved	306 ml/100 g substance	substantially improved stability	110.0 mg	109.4 mg	110.3 mg	107.4 mg	109.6 mg	110.9 mg	112.2 mg	Hexagons and polygonal plates			
CCOC(=O)Nc1ccc(NCc2ccc(F)cc2)nc1N.O=C(O)/C=C\C(=O)O [Flupirtine maleate B, Flupirtine Maleate Form B, reference compound]		1634 ml/100 g substance		4.2 mg	6.3 mg	12.1 mg	16.5 mg	21.3 mg	27.4 mg	69.5 mg	Very fine needles	3.22%	95.92%	99.12%
CCOC(=O)Nc1ccc(NCc2ccc(F)cc2)nc1N.O=C(O)C(F)(F)F [Flupirtine triflutate, Flupirtine Triflutate]	completely dissolved			98.5 mg	115.1 mg	108.0 mg	107.7 mg							
CC(=O)O.CCOC(=O)Nc1ccc(NCc2ccc(F)cc2)nc1N [Flupirtine acetate, 2-amino-3-carbethoxyamino-6-(4-fluoro-benzylamino)-pyridine acetate]		330 ml/100 g substance	substantially improved stability	50.3 mg	108.3 mg	103.0 mg	95.8 mg	96.2 mg	108.3 mg	99.7 mg	Hexagons and polygonal plates	0.9%	98.64%	99.54%
CCOC(=O)Nc1ccc(NCc2ccc(F)cc2)nc1N.O=C(O)/C=C\C(=O)O [Flupirtine maleate A, Flupirtine Maleate Form A, reference compound]		686 ml/100 g substance		2.1 mg	4.1 mg	6.5 mg	9.5 mg	11.7 mg	14.3 mg	24.2 mg	Fine needles	3.11%	96.18%	99.27%
